Test results as given in US10093630B2, “Pyrazole compounds and methods of making and using same” (ABIDE THERAPEUTICS, INC., priority 2014, dated 2018).

How the values were obtained:
Assay in all cases: In vitro competitive activity-based protein profiling (gel-based, FP-Rh or HT-01 probe)
Type in all cases: biochemical
[1] = target: T1, FAAH (Mus musculus, UniProt O08914); details: for inhibition at 10 µM: 10 μM inhibitor, read-out: % Inhibition at 10 μM, B = FAAH
T1 construct: Proteomes (mouse brain membrane fraction or cell lysates); from tissue; host or cells: mouse brain membrane fraction (or cell lysates, not specified)
T1 sequence (O08914 1-579): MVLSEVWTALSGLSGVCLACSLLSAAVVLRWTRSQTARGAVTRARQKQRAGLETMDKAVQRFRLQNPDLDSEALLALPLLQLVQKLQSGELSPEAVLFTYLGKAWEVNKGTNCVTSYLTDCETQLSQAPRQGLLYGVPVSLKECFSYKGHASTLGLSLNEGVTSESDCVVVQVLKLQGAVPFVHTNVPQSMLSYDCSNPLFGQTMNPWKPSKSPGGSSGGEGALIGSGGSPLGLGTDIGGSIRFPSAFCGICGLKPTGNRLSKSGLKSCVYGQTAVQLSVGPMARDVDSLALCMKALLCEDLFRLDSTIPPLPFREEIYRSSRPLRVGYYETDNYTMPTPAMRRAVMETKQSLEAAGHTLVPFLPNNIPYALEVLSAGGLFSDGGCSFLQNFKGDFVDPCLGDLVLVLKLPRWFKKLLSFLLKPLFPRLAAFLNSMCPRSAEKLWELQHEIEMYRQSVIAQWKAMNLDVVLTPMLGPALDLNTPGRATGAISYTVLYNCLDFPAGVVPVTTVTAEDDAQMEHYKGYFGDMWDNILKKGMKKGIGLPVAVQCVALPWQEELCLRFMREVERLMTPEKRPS
Procedure, shortened: (§1)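 Read-out: fluorescent band intensity on SDS-PAGE gels, reporting remaining serine hydrolase activity. Before that, proteome (mouse brain membranes or cell lysates, 1.0 mg/mL) saw a range of inhibitor concentrations for 30 min at 37° C, followed by 30 min probe labelling (FP-Rh or HT-01).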

[2] = target: T2, PLA2G7 (Mus musculus, UniProt Q60963); details: for inhibition at 10 µM: 10 μM inhibitor, read-out: % Inhibition at 10 μM, D = PLA2G7
T2 construct: Proteomes (mouse brain membrane fraction or cell lysates); from tissue; host or cells: mouse brain membrane fraction (or cell lysates, not specified)
T2 sequence (Q60963 22-440): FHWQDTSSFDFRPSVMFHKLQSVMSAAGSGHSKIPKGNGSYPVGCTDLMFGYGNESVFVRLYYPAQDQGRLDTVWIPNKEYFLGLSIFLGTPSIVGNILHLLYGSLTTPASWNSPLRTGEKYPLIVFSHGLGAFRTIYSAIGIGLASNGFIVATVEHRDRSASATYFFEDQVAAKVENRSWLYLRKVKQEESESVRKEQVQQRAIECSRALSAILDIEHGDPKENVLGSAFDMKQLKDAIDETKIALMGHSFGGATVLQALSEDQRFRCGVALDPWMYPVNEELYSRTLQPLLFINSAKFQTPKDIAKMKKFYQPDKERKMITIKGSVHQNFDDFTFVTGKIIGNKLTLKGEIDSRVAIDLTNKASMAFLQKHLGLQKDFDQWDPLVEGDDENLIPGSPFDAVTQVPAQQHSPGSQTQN
Procedure, shortened: as §1

[3] = target: T3, MAGL (Mus musculus, UniProt O35678); details: for inhibition at 10 µM: 10 μM inhibitor
T3 construct: Proteomes (mouse brain membrane fraction or cell lysates); from tissue; host or cells: mouse brain membrane fraction (or cell lysates, not specified)
T3 sequence (O35678 1-303): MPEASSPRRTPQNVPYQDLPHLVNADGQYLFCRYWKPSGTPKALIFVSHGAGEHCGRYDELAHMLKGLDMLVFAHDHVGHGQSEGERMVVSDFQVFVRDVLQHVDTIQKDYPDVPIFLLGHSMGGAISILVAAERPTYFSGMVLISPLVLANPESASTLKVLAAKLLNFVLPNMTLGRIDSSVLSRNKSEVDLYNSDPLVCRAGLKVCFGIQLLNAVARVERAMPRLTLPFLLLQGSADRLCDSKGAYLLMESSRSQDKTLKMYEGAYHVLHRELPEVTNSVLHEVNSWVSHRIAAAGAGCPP
Procedure, shortened: as §1

[4] = target: T4, ABHD6 (Mus musculus, UniProt Q8R2Y0); details: for inhibition at 10 µM: 10 μM inhibitor, read-out: % Inhibition at 10 μM, C = ABHD6
T4 construct: Proteomes (mouse brain membrane fraction or cell lysates); from tissue; host or cells: mouse brain membrane fraction (or cell lysates, not specified)
T4 sequence (Q8R2Y0 1-336): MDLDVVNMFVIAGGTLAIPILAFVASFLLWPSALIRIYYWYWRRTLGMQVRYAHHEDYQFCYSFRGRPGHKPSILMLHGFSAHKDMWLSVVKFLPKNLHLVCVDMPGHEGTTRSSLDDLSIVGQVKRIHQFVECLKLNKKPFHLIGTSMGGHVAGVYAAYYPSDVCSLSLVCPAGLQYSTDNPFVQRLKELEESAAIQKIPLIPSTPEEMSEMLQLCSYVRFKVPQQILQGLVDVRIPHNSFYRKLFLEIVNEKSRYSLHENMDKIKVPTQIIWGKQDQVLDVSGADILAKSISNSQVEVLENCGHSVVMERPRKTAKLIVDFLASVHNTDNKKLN
Procedure, shortened: as §1

SMILES | inhibition at 10 µM [1] [%] | inhibition at 10 µM [2] [%] | inhibition at 10 µM [3] [%] | inhibition at 10 µM [4] [%] | inhibition at 1 µM ([1]; 1 μM inhibitor, read-out: % Inhibition at 1 μM, B = FAAH) [%] | inhibition at 1 µM ([2]; 1 μM inhibitor, read-out: % Inhibition at 1 μM, D = PLA2G7) [%] | inhibition at 1 µM ([3]; 1 μM inhibitor) [%] | inhibition at 1 µM ([4]; 1 μM inhibitor, read-out: % Inhibition at 1 μM, C = ABHD6) [%]
Cc1cnn(C(=O)N2CCCN(S(C)(=O)=O)CC2)c1 [Example 166, (4-Methyl-1H-pyrazol-1-yl)(4-(methylsulfonyl)-1,4-diazepan-1-yl)methanone] | < 25 | < 25 | < 25 | < 25 | – | – | – | –
Cc1cnn(C(=O)N2CCCN(C)CC2)c1 [Example 167, (4-Methyl-1,4-diazepan-1-yl)(4-methyl-1H-pyrazol-1-yl)methanone] | < 25 | < 25 | < 25 | < 25 | – | – | – | –
Cc1cnn(C(=O)N2CCCN(Cc3ccccc3)CC2)c1 [Example 168, (4-Benzyl-1,4-diazepan-1-yl)(4-methyl-1H-pyrazol-1-yl)methanone] | < 25 | < 25 | < 25 | < 25 | – | – | – | –
Cc1cnn(C(=O)N2CCCN(C(=O)c3ccccc3)CC2)c1 [Example 169, (4-Benzoyl-1,4-diazepan-1-yl)(4-methyl-1H-pyrazol-1-yl)methanone] | < 25 | < 25 | 25 to 75 | 25 to 75 | – | – | – | –
CC(=O)N(C)CCN(C)C(=O)n1cc(C)cn1 [Example 170, N,4-Dimethyl-N-(2-(N-methylacetamido)ethyl)-1H-pyrazole-1-carboxamide] | < 25 | < 25 | < 25 | < 25 | – | – | – | –
Cc1cnn(C(=O)N(C)CCN(C)Cc2ccccc2)c1 [Example 171, N-(2-(Benzyl(methyl)amino)ethyl)-N,4-dimethyl-1H-pyrazole-1-carboxamide] | < 25 | < 25 | < 25 | < 25 | – | – | – | –
Cc1cnn(C(=O)N(C)CCN(C)C(=O)c2ccccc2)c1 [Example 172, N,4-Dimethyl-N-(2-(N-methylbenzamido)ethyl)-1H-pyrazole-1-carboxamide] | < 25 | < 25 | < 25 | < 25 | – | – | – | –
CC(=O)N1CCN(C(=O)n2cc(C#N)cn2)CC1 [Example 173, 1-(4-Acetylpiperazine-1-carbonyl)-1H-pyrazole-4-carbonitrile] | < 25 | > 75 | 25 to 75 | 25 to 75 | < 25 | > 75 | < 25 | < 25
